Source: PMC11171218, “N-Benzylated 5-Hydroxybenzothiophene-2-carboxamides as Multi-Targeted Clk/Dyrk Inhibitors and Potential Anticancer Agents” (Cancers, 2024)

Assays:
[1] = Cell viability in normal cells, IEC-6; assay type: cell-based; conditions: rat, IEC-6 rat intestine epithelial cells (normal cells); for viability at 20 µM: mean (n = 3); for IC50: 50% inhibition
Experimental: (§1) All cells were purchased from Bioresource Collection and Research Center (Hsinchu, Taiwan) and cultured in corresponding media supplemented with 10% fetal bovine serum, 1 × Antibiotic-Antimycotic at 37 °C in a humidified incubator with 5% CO2. […] T24 cells were cultured in McCoy’s 5a media. IEC-6 cells were cultured in DMEM media supplemented with 5% fetal bovine serum, 1 × Antibiotic–Antimycotic, and 0.1 unit/mL insulin.
(§2) Cells were incubated with the Cell Counting Kit-8 (CCK-8) reagent (TargetMol, Boston, MA, USA) at 37 °C for 2 h. The cell viability was determined by spectrophotometer at 450 nm.

[2] = Cell viability in normal cells, HaCaT; assay type: cell-based; conditions: human, HaCaT normal human keratinocytes; for viability at 20 µM: mean (n = 3); for IC50: 50% inhibition
Experimental: as §1, §2

T24 cells [3] = assay: Cell cycle assay (PI staining, flow cytometry); assay type: cell-based, human; conditions: 30–50 µM, 24 h
Experimental: Cells were fixed with 75% ethanol and then stained with 50 μg/mL propidium iodide (PI; Cat# P4170, Sigma-Aldrich, St. Louis, MO, USA) at room temperature for 1 h. Cell cycle was analyzed by flow cytometry.
Figure 2 Analysis of cell cycle progression upon treatment with compounds 12 and 17. T24 cells were treated with DMSO (0.1%), 12 (30–50 µM), or 17 (30–50 µM) for 24 h. Cell cycle was examined by propidium iodide (PI) staining and flow cytometry. All data are expressed as the mean ± S.E.M. (n = 3).

T24 cells [4] = assay: Apoptosis assay (Annexin V-FITC/PI, flow cytometry); assay type: cell-based, human; conditions: 24 h
Experimental: Apoptosis was examined by Annexin V-FITC/PI Apoptosis Kit (Cat# E-CK-A211, Elabscience, Houston, TX, USA) following the manufacturer’s protocol and analyzed by flow cytometry.
Figure 3 Annexin V and PI staining in T24 cells to investigate if compounds 12 and 17 could induce apoptotic death. T24 cells were treated with DMSO (0.1%), 12 (30–50 µM), or 17 (30–50 µM) for 24 h and then stained with Annexin V-FITC antibody and PI. The Annexin V-positive apoptotic cells were monitored using flow cytometry. All data are expressed as the mean ± S.E.M. (n = 3). * p < 0.05, ** p < 0.01 compared with the DMSO group. […] Best reading, upper row: Q1-UL 0.1%, Q1-UR 4.5%, Q1-LL 84.7%, Q1-LR 10.7%. Lower row: Q1-UL 0.2%, Q1-UR 5.1%, Q1-LL 84.9%, Q1-LR 9.8%. They are left out of lines because no compound is present.

Bax = assay: Western blot, Bax in T24 cells; assay type: cell-based, human; conditions: 10–50 μM, 24 h
Source text: (§3) Cell lysates were sequentially suspended in commercial RIPA Buffer (pH 7.4; Cat# RB4475, Bio Basic, Markham, Ontario, Canada) containing Protease Inhibitor Cocktail and PhosSTOP (Merck, Darmstadt, Germany), boiled in sodium dodecyl sulphate (SDS) sample buffer, separated by SDS-polyacrylamide gel electrophoresis (PAGE), and electrophoresed onto a PVDF membrane. Antibodies used in this study were Bcl-2 (Cat#A19693, RRID: AB_2862738) and Bax (Cat# A0207, RRID: AB_2757021) from ABclonal (Boston, MA, USA); cleaved caspase-3 (Cat# 9662, RRID: AB_331439) and GAPDH (Cat# 8884, RRID:AB_11129865) from Cell Signaling Technology (Beverly, MA, USA). The labeled signals were determined using HRP-conjugated secondary antibodies and the Bio-rad ChemiDoc™ MP Imaging System (Berkeley, CA, USA).
(§4) Figure 4 Examining the effect of 12 and 17 on proapoptotic and antiapoptotic pathways. T24 cells were treated with DMSO (0.1%), 12 (30–50 µM), or 17 (30–50 µM) for 24 h. Expression levels of cleaved caspase-3, Bax, Bcl-2, and GAPDH were analyzed by Western blot by corresponding antibodies. The quantitation of the cleaved caspase-3/GAPDH, Bax/GAPDH, and Bcl-2/GAPDH ratio are shown. All data are expressed as the mean ± S.E.M. (n = 3). * p < 0.05, ** p < 0.01, *** p < 0.001 compared with the DMSO group.

Bcl-2 = assay: Western blot, Bcl-2 in T24 cells; assay type: cell-based, human; conditions: for Decrease in the antiapoptotic marker Bcl-2: 50 μM; for Expression of antiapoptotic protein Bcl-2: 10–50 μM, 24 h, Western blot
Source text: as §3, §4

Structure (SMILES) | viability at 20 µM [1] [%] | IC50 [1] [µM] | viability at 20 µM [2] [%] | IC50 [2] [µM] | Effect on cell cycle progression (T24 cells [3]) | Apoptotic cell population (Annexin V-positive) (T24 cells [4]; 30 and 50 μM) | Level of Bax (Bax) | Decrease in the antiapoptotic marker Bcl-2 (Bcl-2) | Expression of antiapoptotic protein Bcl-2 (Bcl-2) | Apoptotic cell population (Annexin V-positive) (T24 cells [4]; 50 µM)
O=C(NCc1cc(F)cc(F)c1)c1cc2cc(O)ccc2s1 [Compound 17, N-(3,5-Difluorobenzyl)-5-hydroxybenzo[b]thiophene-2-carboxamide] | 76.8 | > 20 | 64.9 | > 20 | retain the cells in the G2/M phase | dose-dependently increased the apoptotic cell population | increased the proapoptotic levels of cleaved caspase-3 and Bax | approximately 0.5 fold | decreased the expression of the antiapoptotic protein, Bcl-2 | –
COc1cccc(CNC(=O)c2cc3cc(O)ccc3s2)c1 [Compound 12, 5-Hydroxy-N-(3-methoxybenzyl)benzo[b]thiophene-2-carboxamide] | 96 | > 20 | 67.6 | > 20 | much weaker than those of compound 17 | – | increased the proapoptotic levels of cleaved caspase-3 and Bax | approximately 0.5 fold | decreased the expression of the antiapoptotic protein, Bcl-2 | increased the apoptotic cell population
